1 substance from patent publication EP2692352A1, “HOT FLASH SUPPRESSANT” (Shiseido Company, Ltd., priority 2011, dated 2014) can be followed below.

One assay deals with menopausal mice. Particulars: apelin highly expressed in epidermis (K14 promoter transgene, OVXTG) vs OVXWT; nifedipine 50 µg/kg i.p.; 10, 30 and 45 minutes; FIG. 1.
The subject of another assay is Apelin receptor APJ. Nature of the assay: cAMP luciferase assay in APJ-expressing NIH3T3 cells (screening system for apelin-like agents). The format is cell-based. Particulars: FIG. 3.

Description for Apelin receptor APJ: A cAMP luciferase reporter vector was transfected into a stable cell line, which was obtained by highly expressing Apelin receptor APJ in NIH3T3 cells, and then subjecting to selection with hygromycin (provided by Professor Nobuyuki Takakura of the Research Institute for Microbial Diseases of Osaka University), and these were used in the cAMP luciferase assay described below. Culturing was carried out in DMEM medium containing 10% FBS containing 200 µg/ml of hygromycin (Invitrogen). On the day before the assay, 2.0 x 10^5 cells were seeded into each well of a 96-well plate followed by culturing in DMEM medium containing 10% FBS and 200 µg/ml of hygromycin.
After culturing overnight, the medium was removed by aspiration and replaced with 100 µl of additive-free DMEM per well. Three hours later, Glosensor™ cAMP Reagent (Promega) was added at 4 µl per well followed by equilibrating for 2 hours at room temperature under light blocking. Subsequently, apelin 13 (Peptide Institute) was diluted with additive-free DMEM medium to a concentration of 0.4 µg/ml and this was added at 50 µl per well (final concentration: 0.1 µg/ml) followed by incubating for 5 minutes at room temperature. […] Subsequently, luminescence was measured with the GloMax™ 96 Microplate Luminometer (Promega). […]
Description for menopausal mice: Ovariectomy was performed on C57/BL6 mice highly expressing apelin in the epidermis under the control of a K14 promoter (herein after referred to as apelin-highly expressed mice, apelin TG or TG) and the corresponding wild-type mice (C57/BL6) (n=5, 8 to 10 week-old) to obtain menopausal mice highly expressing apelin and menopausal wild type mice. Furthermore, wild type mice that underwent sham surgery were used as a control. Four weeks later, nifedipine (50 µg/kg) was administered intraperitoneally as a vasodilator, and changes in tail temperature were analyzed using thermography (Thermo Tracer TH9011MR, NEC/Avio Infrared Technologies Co., Ltd.) at 10, 30 and 45 minutes after administration.

Consider apelin, for which the “transient rises in body temperature (tail temperature) caused by hot flashes” value with menopausal mice is “able to suppress or improve transient rises in body temperature caused by hot flashes in a short period of time”. For the same substance, in the assay with Apelin receptor APJ (apelin 13 final concentration 0.1 µg/ml, forskolin final 10 µM, versus forskolin-only control), the cAMP concentration entry is reported as “decreased”. In addition, in the assay with Apelin receptor APJ (apelin final 0.5 µg/ml together with neutralizing antibody 4G5 at 1.5, 5, 15 and 50 µg/ml), the “decreases in cAMP concentration in the presence of apelin neutralizing antibody” value is recorded as “suppressed”.
